Measured values: ChEMBL document CHEMBL1909046, “DrugMatrix in vitro pharmacology data”

What was measured:
[1] = target: Kappa-type opioid receptor (Homo sapiens, UniProt P41145); test: DRUGMATRIX: Opiate kappa (OP2, KOP) radioligand binding (ligand: [3H] Diprenorphine); assay type: cell membranes, HEK293, Membrane; settings: hek293; Not Active = under 50% inhibition at 10 µM
Cytochrome P450 2E1 = Cytochrome P450 2E1 (Homo sapiens, UniProt P05181); settings: bti-tn-5b1-4; also: in other assays of this panel Not Active means under 50% inhibition at 10 µM
Progesterone receptor = target: T1, Progesterone receptor (Bos taurus, UniProt Q690N0); test: DRUGMATRIX: Progesterone radioligand binding (ligand: [3H] R-5020); assay type: tissue-based, Uterus; settings: Not Active = under 50% inhibition at 10 µM
T1 sequence (Q690N0 whole entry): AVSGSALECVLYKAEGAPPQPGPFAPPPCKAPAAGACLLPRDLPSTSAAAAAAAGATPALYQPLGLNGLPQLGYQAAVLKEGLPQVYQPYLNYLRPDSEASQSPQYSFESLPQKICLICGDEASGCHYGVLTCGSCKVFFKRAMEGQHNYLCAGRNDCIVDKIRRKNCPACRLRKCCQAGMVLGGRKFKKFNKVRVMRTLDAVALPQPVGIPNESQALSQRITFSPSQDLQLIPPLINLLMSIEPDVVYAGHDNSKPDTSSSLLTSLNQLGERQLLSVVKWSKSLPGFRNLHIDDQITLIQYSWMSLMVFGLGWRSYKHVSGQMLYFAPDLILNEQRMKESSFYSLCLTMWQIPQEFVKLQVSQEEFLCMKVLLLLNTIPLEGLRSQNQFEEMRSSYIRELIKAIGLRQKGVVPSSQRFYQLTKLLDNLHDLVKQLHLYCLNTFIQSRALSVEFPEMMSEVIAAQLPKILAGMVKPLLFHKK

Mu-type opioid receptor = Mu-type opioid receptor (Homo sapiens, UniProt P35372); test: DRUGMATRIX: Opiate mu (OP3, MOP) radioligand binding (ligand: [3H] Diprenorphine); assay type: cell membranes, CHO-K1, Membrane; settings: cho-k1; Not Active = under 50% inhibition at 10 µM
Cytochrome P450 2A6 = target: T2, Cytochrome P450 2A6 (Homo sapiens, UniProt P11509); settings: bti-tn-5b1-4; also: in other assays of this panel Not Active means under 50% inhibition at 10 µM
T2 sequence (P11509 whole entry): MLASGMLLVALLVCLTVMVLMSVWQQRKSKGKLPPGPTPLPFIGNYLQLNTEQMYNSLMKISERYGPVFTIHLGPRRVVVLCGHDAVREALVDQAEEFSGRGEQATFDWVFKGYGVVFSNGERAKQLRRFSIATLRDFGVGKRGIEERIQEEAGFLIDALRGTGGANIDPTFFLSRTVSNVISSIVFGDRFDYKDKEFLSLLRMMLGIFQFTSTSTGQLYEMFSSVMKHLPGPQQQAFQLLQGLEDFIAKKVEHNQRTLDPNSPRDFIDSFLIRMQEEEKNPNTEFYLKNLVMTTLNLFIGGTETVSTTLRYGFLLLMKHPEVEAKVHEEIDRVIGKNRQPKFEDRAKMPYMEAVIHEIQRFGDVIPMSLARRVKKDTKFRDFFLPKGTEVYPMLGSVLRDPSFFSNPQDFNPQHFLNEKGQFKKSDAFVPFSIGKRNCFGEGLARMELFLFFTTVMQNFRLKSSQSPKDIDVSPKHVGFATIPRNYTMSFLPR

[2] = target: T3, Alpha-2A adrenergic receptor (Homo sapiens, UniProt P08913); assay type: cell membranes, Sf9, Membrane; settings: sf9; also: in other assays of this panel Not Active means under 50% inhibition at 10 µM
T3 sequence (P08913 whole entry): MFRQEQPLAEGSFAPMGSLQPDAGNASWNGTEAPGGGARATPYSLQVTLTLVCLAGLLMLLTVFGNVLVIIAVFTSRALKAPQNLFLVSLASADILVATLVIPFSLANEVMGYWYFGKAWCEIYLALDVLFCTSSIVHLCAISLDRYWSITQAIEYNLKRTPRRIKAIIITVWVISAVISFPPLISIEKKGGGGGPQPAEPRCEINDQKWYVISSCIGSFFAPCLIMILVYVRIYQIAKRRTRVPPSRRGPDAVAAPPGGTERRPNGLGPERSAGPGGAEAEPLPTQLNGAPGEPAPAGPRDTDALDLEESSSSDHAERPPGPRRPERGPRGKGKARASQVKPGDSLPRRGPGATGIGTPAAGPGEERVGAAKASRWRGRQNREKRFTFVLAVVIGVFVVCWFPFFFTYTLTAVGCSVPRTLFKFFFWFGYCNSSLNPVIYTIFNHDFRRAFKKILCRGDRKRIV

[3] = target: Voltage-gated inwardly rectifying potassium channel KCNH2 (Homo sapiens, UniProt Q12809); settings: hek293; also: in other assays of this panel Not Active means under 50% inhibition at 10 µM
Sequence of Voltage-gated inwardly rectifying potassium channel KCNH2 (Q12809 whole entry): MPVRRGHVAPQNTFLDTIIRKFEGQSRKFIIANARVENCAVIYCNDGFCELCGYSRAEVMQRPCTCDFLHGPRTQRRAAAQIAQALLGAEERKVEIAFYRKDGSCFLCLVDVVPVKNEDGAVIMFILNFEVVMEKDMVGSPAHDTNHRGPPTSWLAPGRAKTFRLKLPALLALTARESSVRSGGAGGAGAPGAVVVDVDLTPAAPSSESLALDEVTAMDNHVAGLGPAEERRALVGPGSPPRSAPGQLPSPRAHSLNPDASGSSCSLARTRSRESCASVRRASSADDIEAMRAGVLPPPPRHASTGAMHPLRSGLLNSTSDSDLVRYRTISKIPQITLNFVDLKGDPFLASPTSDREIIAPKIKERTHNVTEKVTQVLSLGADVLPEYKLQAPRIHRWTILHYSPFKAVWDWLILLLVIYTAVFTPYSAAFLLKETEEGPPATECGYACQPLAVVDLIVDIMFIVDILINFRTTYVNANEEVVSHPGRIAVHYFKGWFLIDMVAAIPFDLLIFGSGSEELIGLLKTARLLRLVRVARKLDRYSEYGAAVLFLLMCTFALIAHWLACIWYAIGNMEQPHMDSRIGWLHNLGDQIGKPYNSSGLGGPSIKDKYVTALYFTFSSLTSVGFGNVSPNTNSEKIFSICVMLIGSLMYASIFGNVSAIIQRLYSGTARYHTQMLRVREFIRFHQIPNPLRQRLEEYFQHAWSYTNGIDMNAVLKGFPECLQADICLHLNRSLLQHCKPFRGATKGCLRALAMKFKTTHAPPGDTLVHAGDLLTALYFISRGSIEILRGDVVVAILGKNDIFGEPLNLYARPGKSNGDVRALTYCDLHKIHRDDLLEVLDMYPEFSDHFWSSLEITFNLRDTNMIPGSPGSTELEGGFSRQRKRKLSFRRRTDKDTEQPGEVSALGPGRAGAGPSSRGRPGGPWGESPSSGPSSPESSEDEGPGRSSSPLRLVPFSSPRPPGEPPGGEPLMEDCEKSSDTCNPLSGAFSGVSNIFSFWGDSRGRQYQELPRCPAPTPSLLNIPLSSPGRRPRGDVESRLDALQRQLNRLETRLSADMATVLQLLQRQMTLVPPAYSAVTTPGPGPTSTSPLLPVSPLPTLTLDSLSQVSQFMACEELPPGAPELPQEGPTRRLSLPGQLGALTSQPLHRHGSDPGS

Sequence of Cytochrome P450 2E1 (P05181 whole entry): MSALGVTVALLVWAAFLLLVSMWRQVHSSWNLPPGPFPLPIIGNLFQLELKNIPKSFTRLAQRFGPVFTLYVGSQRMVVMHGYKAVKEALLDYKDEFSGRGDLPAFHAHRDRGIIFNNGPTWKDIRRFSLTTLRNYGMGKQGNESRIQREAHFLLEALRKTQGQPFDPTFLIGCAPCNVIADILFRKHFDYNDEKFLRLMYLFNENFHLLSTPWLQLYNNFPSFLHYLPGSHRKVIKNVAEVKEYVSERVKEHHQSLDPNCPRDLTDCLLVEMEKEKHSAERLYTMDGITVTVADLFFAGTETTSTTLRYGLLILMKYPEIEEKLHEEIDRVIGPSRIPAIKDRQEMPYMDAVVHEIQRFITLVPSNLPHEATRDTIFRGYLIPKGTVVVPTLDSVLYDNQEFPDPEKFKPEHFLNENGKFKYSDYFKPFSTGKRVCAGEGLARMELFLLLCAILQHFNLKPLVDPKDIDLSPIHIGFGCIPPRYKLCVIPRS
Sequence of Mu-type opioid receptor (P35372 whole entry): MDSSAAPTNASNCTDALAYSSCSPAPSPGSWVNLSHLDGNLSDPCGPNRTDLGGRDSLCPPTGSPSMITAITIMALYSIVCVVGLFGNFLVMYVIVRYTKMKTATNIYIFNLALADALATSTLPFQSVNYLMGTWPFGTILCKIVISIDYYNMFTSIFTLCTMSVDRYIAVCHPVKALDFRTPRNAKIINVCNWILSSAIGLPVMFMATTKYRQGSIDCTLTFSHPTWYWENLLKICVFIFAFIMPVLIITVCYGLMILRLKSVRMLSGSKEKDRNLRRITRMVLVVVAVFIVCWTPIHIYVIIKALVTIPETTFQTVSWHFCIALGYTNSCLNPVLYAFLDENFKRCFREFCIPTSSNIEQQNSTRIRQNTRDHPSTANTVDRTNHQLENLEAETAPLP
Sequence of Kappa-type opioid receptor (P41145 whole entry): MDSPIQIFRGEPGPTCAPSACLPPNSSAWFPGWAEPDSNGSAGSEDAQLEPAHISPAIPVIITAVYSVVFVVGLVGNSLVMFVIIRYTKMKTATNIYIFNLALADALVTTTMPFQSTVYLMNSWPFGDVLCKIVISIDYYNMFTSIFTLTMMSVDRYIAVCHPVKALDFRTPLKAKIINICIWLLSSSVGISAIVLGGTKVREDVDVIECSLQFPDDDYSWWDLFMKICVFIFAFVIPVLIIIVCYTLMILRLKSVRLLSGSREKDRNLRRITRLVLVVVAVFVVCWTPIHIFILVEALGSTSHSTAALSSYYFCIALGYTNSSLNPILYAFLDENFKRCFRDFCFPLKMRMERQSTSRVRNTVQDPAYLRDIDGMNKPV

CN1C(=O)OC(C)(C)C1=O [TRIMETHADIONE]
Not Active: IC50 [1] | IC50 (Cytochrome P450 2E1) | Ki (Cytochrome P450 2E1) | IC50 (Progesterone receptor) | IC50 (Mu-type opioid receptor) | IC50 (Cytochrome P450 2A6) | Ki (Cytochrome P450 2A6) | IC50 [2] | IC50 [3] | Ki [3]
